Measurements reported in US20090280193A1, “Enerceutical mediated activation of the Alternative Cellular Energy (ACE) pathway in the therapy of diseases” (priority 2008, published 2009).

Assay: UV light induced fluorescence when mixed with freshly prepared neutral red
Format: physicochemical
From the text: This concept is fully consistent with the finding that various mineral and organic substances can be formulated that similarly show fluorescence when mixed with neutral red and illuminated with UV light. Not all cellular energy delivering products show this reaction but may yet presumably still be are able to absorb energies; and further that such absorption may be facilitated using various types of dyes or other chemicals. The advantage of a current formulation that has been devised over the last several years is that it clearly fluoresces with neutral red and that a distant action can be easily observed in a distantly held neutral red indication solution. This action includes otherwise unexplained movements of fine particles within the neutral red solution and more strikingly the induced crystallization that occurs in the neutral red solution. […] The UV inducible fluorescence, or other form of energy emission, within the plastic bags will typically evoke some discernable fluorescence within at least some skin areas in most of the treated and symptomatic patients, consistent with an overall systemic activation of the body's ACE pathway. […] The liquid-in-a-bag format also allows for the addition of other materials that can further enhance the activation and/or fluorescence of the formulations being studied. […]

CCN(CC)CC(=O)Nc1c(C)cccc1C [Lidocaine]
fluorescence with neutral red: will not fluoresce
